In patent US9603849B2, “Uses of orvepitant” (NERRE THERAPEUTICS LIMITED, priority 2012, dated 2017):

Molecular target: NK-1 receptor (Meriones unguiculatus, UniProt Q5DUB1)
Assay: GR73632-induced hindlimb scratching behaviour in the Mongolian gerbil
Format: in vivo
Settings: all doses tested (from 0.1 to 10.0 mg/kg)
Excerpt: 5) Particularly the antipruritic effect of orvepitant maleate was determinated in GR73632-induced scratching behaviour in the Mongolian gerbil. According to this metholody the scratching behaviour was induced by GR73632 which is a specific agonist of the NK-1 receptor.
72 male Mongolian gerbils (58-78 g) after a minimum habituation period of 10 days prior to study commencement, were acclimatised to the procedure room in their home cages, with food and water available ad libitum. The day before the experiment was due to commence a 1 cm×1 cm squared area between the shoulder blades was shaved free of hair.
Habituation to the apparatus (custom made observation chambers; approximately 30×30 cm; 2 animals per observation) took place 30 minutes prior to induction of scratching behaviours using GR73632.
A 10 mg/kg stock solution of orvepitant maleate was made by dissolving 20 mg of orvepitant maleate Form 1 in 20 mls of vehicle (5% DMSO & 95% HPMC (0.5%)). This stock solution was serially diluted to prepare doses of 0.1, 0.3, 1.0, 3.0 or 10 mg/kg orvepitant maleate.
At T=−60 mins mongolian gerbils were dosed with orvepitant maleate (0.1, 0.3, 1.0, 3.0 or, 10 mg/kg p.o.). Gerbils were allocated to dosing groups based on a Latin square design. 30 Minutes later (T=−30 mins) gerbils were placed into the observation chamber for 30 minutes habituation. At T=0 Gerbils were then dosed with GR73632 (30 nmol/100 uL; i.d.) between the shoulder blades and their subsequent hindlimb scratching behaviour recorded using GeoVision surveillance software over a 30 minute period.
Playing back of the video served for counting scratching behaviour. […] Cumulative frequency and duration (secs) of scratching was scored in 5 min epochs. Treatment groups were randomised based on a Latin Square design. The experimenter was blinded to the treatment groups.
Repeated measures ANOVA followed by Planned comparison test using GraphPad Prism. (p<0.05 considered significant). Data were analysed by comparing treatment groups to control group at each time point.

NK-1 receptor, sequence (Q5DUB1 whole entry): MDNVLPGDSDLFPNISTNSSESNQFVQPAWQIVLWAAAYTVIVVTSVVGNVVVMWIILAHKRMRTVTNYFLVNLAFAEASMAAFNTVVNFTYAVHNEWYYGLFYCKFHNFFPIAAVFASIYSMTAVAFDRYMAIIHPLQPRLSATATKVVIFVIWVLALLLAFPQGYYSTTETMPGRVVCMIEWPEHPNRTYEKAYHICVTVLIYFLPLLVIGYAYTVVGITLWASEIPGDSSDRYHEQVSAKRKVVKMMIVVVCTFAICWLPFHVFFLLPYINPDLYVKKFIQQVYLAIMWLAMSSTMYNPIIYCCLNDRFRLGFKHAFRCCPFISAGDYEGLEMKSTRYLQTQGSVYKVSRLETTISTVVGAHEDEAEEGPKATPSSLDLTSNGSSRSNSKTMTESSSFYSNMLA

Cc1cc(F)ccc1[C@H]1C[C@@H](N2CCN3C(=O)CC[C@H]3C2)CCN1C(=O)N(C)[C@H](C)c1cc(C(F)(F)F)cc(C(F)(F)F)c1 [Orvepitant, 2-(R)-(4-Fluoro-2-methyl-phenyl)-4-(S)-((8aS)-6-oxo-hexahydro-pyrrolo[1,2-a]-pyrazin-2-yl)-piperidine-1-carboxylic acid [1-(R)-(3,5-bis-trifluoromethyl-phenyl)-ethyl]-methylamide]
inhibition of GR73632 induced hindlimb scratching: profound inhibition
